Measurements as given in US20260130933A1, “PHARMACEUTICAL COMPOSITION FOR PREVENTION OR TREATMENT OF NEPHROPATHY AND/OR DIABETES MELLITUS, COMPRISING ENAVOGLIFLOZIN” (DAEWOONG PHARMACEUTICAL CO., LTD., priority 2022, published 2026).

Assay: Example 3: phase 3 trial, enavogliflozin 0.3 mg vs dapagliflozin 10 mg once a day for 24 weeks added to metformin and gemigliptin in patients with type 2 diabetes (same endpoints, rescue drug)
Type: in vivo, human
Conditions: for Subjects achieving therapeutic glycemic response 2, %: response 2 = HbA1c change >0.7% or HbA1c <7%; for Subjects achieving therapeutic glycemic response 3, %: response 3 = HbA1c change >1% or HbA1c <7%
Description: 1) when Metformin (≥1,000 mg/Day) was Administered at a Constant Dose for at Least 8 Weeks Prior to Pre-Visit (Pre-Screening) • Metformin (≥1,000 mg/day) and gemigliptin (50 mg/day) were co-administered during the 8-week stabilization period. […] 4) when Metformin (≥1,000 mg/Day) and Gemigliptin (50 mg/Day) were Co-Administered at Constant Doses for at Least 8 Weeks Prior to Pre-Visit (Prescreening) • Without a separate stabilization period, Pre-visit (pre-screening) was Visit 1 (screening).
Subjects who met the inclusion/exclusion criteria continued to receive metformin and gemigliptin while receiving a placebo of the clinical trial drug in a single-blind (subject-blinded) state for a 2-week run-in period.
Here, the randomized subjects were stratified according to the administration therapy (co-administration with two or less agents (one or two agents) or three or more agents) of a conventional hypoglycemic agent (before washout of another hypoglycemic agent) within 24 weeks prior to obtaining written informed consent and by an HbA1c value (<8% or ≥8%) at Visit 1 (screening) measured in the central laboratory.
The randomized subjects were administered two tablets of the clinical trial drug corresponding to each administration group once a day, and then visited the institution at weeks 6, 12, 18, and 24 during the 24-week administration period to conduct efficacy and safety assessments. In addition, during the clinical trial period, they were instructed to exercise regularly and control their diet without changing their daily life patterns.
• 1) Change in HbA1c at week 24 after administration of clinical trial drug compared to Visit 2 (randomization)
• 1) Change in HbA1c at each time point of weeks 6, 12, and 18 after administration of clinical trial drug compared to Visit 2 (randomization) • 2) Change in FPG at each time point of weeks 6, 12, 18, and 24 after administration of clinical trial drug compared to Visit 2 (randomization) • 3) Proportion of subjects achieving HbA1c<7% at each time point of weeks 6, 12, 18, and 24 after administration of clinical trial drug • 4) Proportion of subjects achieving HbA1c<6.5% at each time point of weeks 6, 12, 18, and 24 after administration of clinical trial drug • 5) Proportion of subjects achieving therapeutic response (HbA1c change (HbA1c at Visit 2—HbA1c at each evaluation time point)>0.5% or HbA1c<7% at each evaluation time point compared to Visit 2 (randomization)) at each time point of weeks 6, 12, 18, and 24 after administration of clinical trial drug • 6) Proportion of subjects achieving therapeutic response (HbA1c change (HbA1c at Visit 2—HbA1c at each evaluation time point)>0.7% or HbA1c<7% at each evaluation time point compared to Visit 2 (randomization)) at each time point of weeks 6, 12, 18, and 24 after administration of clinical trial drug • 7) Proportion of subjects achieving therapeutic response (HbA1c change (HbA1c at Visit 2—HbA1c at each evaluation time point)>1% or HbA1c<7% at each evaluation time point compared to Visit 2 (randomization)) at each time point of weeks 6, 12, 18, and 24 after administration of clinical trial drug

[1] = week 18, per-protocol set, enavogliflozin 0.3 mg, dapagliflozin 10 mg
[2] = week 24, modified per-protocol set 1, enavogliflozin 0.3 mg vs dapagliflozin 10 mg
[3] = week 24, modified per-protocol set 1, enavogliflozin 0.3 mg, dapagliflozin 10 mg
[4] = week 24, modified per-protocol set 2
[5] = week 24, modified per-protocol set 2, enavogliflozin 0.3 mg, dapagliflozin 10 mg
[6] = week 24, per-protocol set, enavogliflozin 0.3 mg vs dapagliflozin 10 mg
[7] = week 24, per-protocol set, enavogliflozin 0.3 mg, dapagliflozin 10 mg

## OC[C@H]1O[C@@H](c2cc(Cc3ccc(C4CC4)cc3)c(Cl)c3c2CCO3)[C@H](O)[C@@H](O)[C@@H]1O [Enavogliflozin, (2S,3R,4R,5S,6R)-2-(7-chloro-6 (4-cyclopropylbenzyl)-2,3-dihydrobenzofuran-4-yl)-6-(hydroxymethyl)tetrahydro-2H-pyran-3,4,5-triol]
[1]
  HbA1c, Median: 6.87%
  Subjects achieving HbA1c target of <6.5%, (%): 14.53%
  Subjects achieving HbA1c target of <7%, %: 63.25%
  body weight, Median: 65.40 kg
  Subjects achieving therapeutic glycemic response 2, %: 77.78%
  Subjects achieving therapeutic glycemic response 3, %: 74.36%
Week 24
  FPG change from baseline, LS mean (SE): −27.21(1.81) mg/dL
  HDL-C change from baseline, LS mean (SE): 4.32(0.71) mg/dL
  HOMA-IR change from baseline, LS mean (SE): −1.09(0.11)
  HOMA-β change from baseline, LS mean (SE): 1.09(4.79)
  HbA1c change from baseline, LS mean (SE): −0.92(0.05) % p
  HbA1c change from baseline, Mean (SD): −0.93(0.70) % p
  LDL-C change from baseline, LS mean (SE): 0.85(1.89) mg/dL
  UACR change from baseline, LS mean (SE): −15.34 (3.93) g/kg
  UGCR change from baseline, LS mean (SE): 60.22(2.31) mg/mg
  adiponectin change from baseline, LS mean (SE): 1.42(0.35) μg/mL
  body weight change from baseline, LS mean (SE): −3.15(0.23) kg
  diastolic blood pressure change from baseline, LS mean (SE): −2.55(0.72) mmHg
  fasting C-peptide change from baseline, LS mean (SE): −0.09(0.02) ng/ml
  leptin change from baseline, LS mean (SE): −1.46(0.52) ng/mL
  systolic blood pressure change from baseline, LS mean (SE): −4.49(0.96) mmHg
  total cholesterol change from baseline, LS mean (SE): 4.48(2.07) mg/dL
  triglyceride change from baseline, LS mean (SE): −8.22(4.01) mg/dL
Week 24, FAS, vs dapagliflozin
  Odds ratio for administering the rescue drug: 0.36
Week 24, vs dapagliflozin
  FPG change from baseline, LS mean difference: -3.49 mg/dL
  HDL-C change from baseline, LS mean difference: -0.08 mg/dL
  HOMA-IR change from baseline, LS mean difference: −0.16
  HOMA-β change from baseline, LS mean difference: −4.69
  HbA1c change from baseline, LS mean difference: −0.06 % p
  LDL-C change from baseline, LS mean difference: -2.27 mg/dL
  Odds ratio for achieving HbA1c<6.5%: 1.27
  Odds ratio for achieving HbA1c<7%: 1.17
  Odds ratio, therapeutic response (HbA1c change >0.5% or HbA1c<7%): 1.15
  Odds ratio, therapeutic response (HbA1c change >0.7% or HbA1c<7%): 0.98
  Odds ratio, therapeutic response (HbA1c change >1% or HbA1c<7%): 1.22
  UACR change from baseline, LS mean difference: 0.79 g/kg
  UGCR change from baseline, LS mean difference: 16.71 mg/mg
  adiponectin change from baseline, LS mean difference: 0.49 µg/mL
  body weight change from baseline, LS mean difference: -0.15 kg
  diastolic blood pressure change from baseline, LS mean difference: −0.66 mmHg
  fasting C-peptide change from baseline, LS mean difference: -0.01 ng/mL
  leptin change from baseline, LS mean difference: -0.89 ng/mL
  systolic blood pressure change from baseline, LS mean difference: −0.22 mmHg
  total cholesterol change from baseline, LS mean difference: -1.09 mg/dL
  triglyceride change from baseline, LS mean difference: 0.56 mg/dL
[2]
  Change from baseline in HDL-C, ANCOVA LS mean difference: -0.08 mg/dL
  Change from baseline in LDL-C, ANCOVA LS mean difference: -2.27 mg/dL
  Change from baseline in total cholesterol, ANCOVA LS mean difference: -1.09 mg/dL
  Change from baseline in triglycerides, ANCOVA LS mean difference: 0.56 mg/dL
[3]
  Change from baseline in HDL-C, ANCOVA LS mean: 4.32 mg/dL
  Change from baseline in HDL-C, Mean: 4.53 mg/dL
  Change from baseline in HDL-C, Median: 4.00 mg/dL
  Change from baseline in LDL-C, ANCOVA LS mean: 0.85 mg/dL
  Change from baseline in LDL-C, Mean: 1.75 mg/dL
  Change from baseline in LDL-C, Median: 0.50 mg/dL
  Change from baseline in total cholesterol, ANCOVA LS mean: 4.48 mg/dL
  Change from baseline in total cholesterol, Mean: 5.59 mg/dL
  Change from baseline in total cholesterol, Median: 5.50 mg/dL
  Change from baseline in triglycerides, ANCOVA LS mean: -8.22 mg/dL
  Change from baseline in triglycerides, Mean: -6.05 mg/dL
  Change from baseline in triglycerides, Median: -1.00 mg/dL
  Fasting HDL-C, Mean: 50.58 mg/dL
  Fasting HDL-C, Median: 48.50 mg/dL
  Fasting LDL-C, Mean: 73.15 mg/dL
  Fasting LDL-C, Median: 70.50 mg/dL
  Fasting total cholesterol, Mean: 140.06 mg/dL
  Fasting triglycerides, Mean: 113.01 mg/dL
  Fasting triglycerides, Median: 101.00 mg/dL
  fasting Total cholesterol, Median: 134.00 mg/dL
[4]
  Change from baseline in diastolic blood pressure, ANCOVA LS mean: −2.55 mmHg
  Change from baseline in diastolic blood pressure, LS mean difference (enavogliflozin − dapagliflozin): −0.66 mmHg
  Change from baseline in diastolic blood pressure, Mean: −3.19 mmHg
  Change from baseline in diastolic blood pressure, Median: −3.00 mmHg
  Diastolic blood pressure, Mean: 73.40 mmHg
  Diastolic blood pressure, Median: 73.50 mmHg
Week 24, modified per-protocol set 2, enavogliflozin 0.3 mg vs dapagliflozin 10 mg
  Change from baseline in systolic blood pressure, ANCOVA LS mean difference: −0.22 mmHg
[5]
  Change from baseline in systolic blood pressure, ANCOVA LS mean: −4.49 mmHg
  Change from baseline in systolic blood pressure, Mean: −5.20 mmHg
  Change from baseline in systolic blood pressure, Median: −5.00 mmHg
  Systolic blood pressure, Mean: 122.29 mmHg
  Systolic blood pressure, Median: 121.00 mmHg
Week 24, per-protocol set
  Adiponectin, Mean: 7.62 µg/mL
  Adiponectin, Median: 6.49 µg/mL
  Change from baseline in HOMA-IR, ANCOVA LS mean: −1.09
  Change from baseline in HOMA-IR, LS mean difference (enavogliflozin − dapagliflozin): −0.16
  Change from baseline in HOMA-IR, Mean: −1.07
  Change from baseline in HOMA-IR, Median: −0.80
  Change from baseline in HOMA-β, ANCOVA LS mean: 1.09
  Change from baseline in HOMA-β, LS mean difference (enavogliflozin − dapagliflozin): −4.69
  Change from baseline in HOMA-β, Mean: 2.57
  Change from baseline in HOMA-β, Median: 5.70
  Change from baseline in UACR, ANCOVA LS mean: -15.34 g/kg
  Change from baseline in UACR, LS mean difference (enavogliflozin − dapagliflozin): 0.79 g/kg
  Change from baseline in UACR, Mean: -19.52 g/kg
  Change from baseline in UACR, Median: -1.55 g/kg
  Change from baseline in UGCR, ANCOVA LS mean: 60.22 mg/mg
  Change from baseline in UGCR, LS mean difference (enavogliflozin − dapagliflozin): 16.71 mg/mg
  Change from baseline in UGCR, Mean: 59.39 mg/mg
  Change from baseline in UGCR, Median: 55.98 mg/mg
  Change from baseline in adiponectin, ANCOVA LS mean: 1.42 µg/mL
  Change from baseline in adiponectin, LS mean difference (enavogliflozin − dapagliflozin): 0.49 µg/mL
  Change from baseline in adiponectin, Mean: 1.39 µg/mL
  Change from baseline in adiponectin, Median: 1.11 µg/mL
  Change from baseline in leptin, ANCOVA LS mean: -1.46 ng/mL
  Change from baseline in leptin, LS mean difference (enavogliflozin − dapagliflozin): -0.89 ng/mL
  Change from baseline in leptin, Mean: -1.52 ng/mL
  Change from baseline in leptin, Median: -0.91 ng/mL
  HOMA-IR (insulin resistance), Mean: 1.84
  HOMA-IR (insulin resistance), Median: 1.56
  HOMA-β (beta-cell function), Mean: 45.48
  HOMA-β (beta-cell function), Median: 41.40
  Leptin, Mean: 8.95 ng/mL
  Leptin, Median: 6.03 ng/mL
  UACR, Mean: 27.90 g/kg
  UACR, Median: 11.10 g/kg
  UGCR, Mean: 60.12 mg/mg
  UGCR, Median: 57.96 mg/mg
[6]
  Achieving HbA1c target of <6.5%, odds ratio (logistic regression model): 1.27
  Achieving HbA1c target of <7%, odds ratio (logistic regression model): 1.17
  Change from baseline in FPG, ANCOVA LS mean difference: -3.49 mg/dL
  Change from baseline in body weight, ANCOVA LS mean difference: -0.15 kg
  Change from baseline in fasting C-peptide, ANCOVA LS mean difference: -0.01 ng/mL
  Therapeutic glycemic response 1, odds ratio (logistic regression model): 1.15
  Therapeutic glycemic response 2, odds ratio (logistic regression model): 0.98
  Therapeutic glycemic response 3, odds ratio (logistic regression model): 1.22
[7]
  Body weight, Mean: 66.19 kg
  Change from baseline in FPG, ANCOVA LS mean: -27.21 mg/dL
  Change from baseline in FPG, Mean: -26.31 mg/dL
  Change from baseline in FPG, Median: -20.00 mg/dL
  Change from baseline in body weight, ANCOVA LS mean: -3.15 kg
  Change from baseline in body weight, Mean: -3.09 kg
  Change from baseline in body weight, Median: -3.00 kg
  Change from baseline in fasting C-peptide, ANCOVA LS mean: -0.09 ng/mL
  Change from baseline in fasting C-peptide, Mean: -0.09 ng/mL
  Change from baseline in fasting C-peptide, Median: -0.07 ng/mL
  FPG, Mean: 113.03 mg/dL
  FPG, Median: 110.00 mg/dL
  Fasting C-peptide, Mean: 0.64 ng/mL
  Fasting C-peptide, Median: 0.63 ng/mL
  Subjects achieving HbA1c target of <6.5%, (%): 21.01%
  Subjects achieving HbA1c target of <7%, %: 66.39%
  body weight, Median: 65.10 kg
  Subjects achieving therapeutic glycemic response 2, %: 81.51%
  Subjects achieving therapeutic glycemic response 3, %: 78.15%
Week 24, per-protocol set, response 1 = HbA1c change >0.5% or HbA1c <7%, enavogliflozin 0.3 mg, dapagliflozin 10 mg
  Subjects achieving therapeutic glycemic response 1, %: 86.55%
